Reference: ChEMBL document CHEMBL3507680, “University of Dundee, Gates Library screen for HepG2 cell viability”

assay: Human HepG2 cell viability assay in 384 well format; format: toxicity, cell-based; parameters: dose 125 nL, time 70.5 hour; cytotoxicity at 70.5 h: concentration not given beside the values; details: HepG2 cells, read-out: Inhibition

Row | SMILES | cytotoxicity at 70.5 h
1 | CC(C)(O)CN1CCN(C(=O)c2cccn2Cc2ccncc2)CC1 | -9.5%
2 | Cn1cc(C(=O)N2CCN(Cc3cscn3)CC2)ccc1=O | 4.94%
3 | Cc1csc(C2(NC(=O)CCc3ccncc3)CCCC2)n1 | -7.21%
4 | Cc1cc(CN2CCN(C(=O)c3ccc(=O)n(C)c3)CC2)no1 | -5.04%
5 | CCn1ccnc1CN1CCCC1C(=O)Nc1nccs1 (configuration not stated) | -5.23%
6 | Cc1cc(F)cc2c(N3CCC(S(N)(=O)=O)CC3)c(C#N)cnc12 | -4.86%
7 | CC(=O)NC1CCN(c2c(C#N)cnc3c(C)cc(F)cc23)CC1 | 0.242%
8 | CC(C)(C#N)c1ccccc1CN1CCC(N2CCCC2=O)CC1 | 13.9%
9 | COc1cc2c(cc1CNC(=O)Cc1ccc(C)nc1)OC(C)C2 (configuration not stated) | -6.1%
10 | Cn1cc(C(=O)N2CCN(Cc3ccccn3)CC2)ccc1=O | 19.1%
11 | CN(C)c1ccccc1CN1CCCC(N2CCCC2=O)C1 (configuration not stated) | -8.7%
12 | Cc1cc(C)c2ncc(C#N)c(N3CCS(=O)(=O)CC3)c2c1 | -7.23%
13 | CCOCCC(=O)N1CCN(CC(C)O)CC1 (configuration not stated) | 16%
14 | CC(=O)Nc1cccc(CN2CCCC2C(=O)Nc2nccs2)c1 (configuration not stated) | 17.5%
15 | CN(C)C(C)(C)CNCc1c[nH]nc1-c1cc2ccccc2o1 | 10%
16 | CCN(CC)CCn1cc(NC2CCN(C(C)(C)C)CC2)cn1 | 5.68%
17 | CC(=O)N(C)Cc1cccc(NC(=O)CCCc2nc(C(C)C)no2)c1 | 9.44%
18 | CCN(CC(=O)Nc1cc(Cl)ccc1C)C(=O)c1ccncc1 | -1.81%
19 | CCN(CC(=O)Nc1cc(Cl)ccc1C)C(=O)c1cnccn1 | 0.456%
20 | CCCNC(=O)CNC(=O)c1scnc1C | 3.25%
21 | Cc1cc(C(=O)Nc2ccc3c(ccn3CCN3CCOCC3)c2)on1 | -5.31%

Row | SMILES | cytotoxicity at 70.5 h
22 | Cc1nc(N2CCC(CN3CCCC3)CC2)c2cnn(C)c2n1 | -2.49%
23 | Cn1ncc2c(N3CCC(CC(=O)N4CCCC4)CC3)ncnc21 | -4.03%
24 | CC1CCC(NC(=O)CNC2(c3ccc(Br)cc3)CCOCC2)CC1 (configuration not stated) | 4.23%
25 | CCN(CC(=O)N(C)C)C(=O)c1nc(C)n(-c2ccccc2Cl)n1 | -0.577%
26 | CCC(C)C(=O)NCc1c(C)nn(C)c1N1CCCN(C)CC1 (configuration not stated) | 1.79%
27 | COC(=O)COc1ccc(-c2noc(C3CCCO3)n2)cc1 (configuration not stated) | 24.5%
28 | O=C(NCCc1noc(-c2ccccn2)n1)NCC1CCCC1 | -4.99%
29 | CC(Nc1cccc2c1OCCO2)C(=O)Nc1ccc(S(N)(=O)=O)cc1 (configuration not stated) | 25.1%
30 | CCc1ccc(NC(=O)C(C)Nc2cccc3c2OCCO3)cc1 (configuration not stated) | 2%
31 | CC(=O)N1CCN(C(=O)CN2CCCC2c2c(C)nn(C)c2C)CC1 (configuration not stated) | 7.11%
32 | Cn1cc(CC2CC(=O)N(Cc3ccc(OC(F)F)cc3)C2=O)cn1 (configuration not stated) | 3.06%
33 | Cc1nn(C)c(N2CCCN(C)CC2)c1CNC(=O)CCC(C)C | -1.98%
34 | CCOCCC1(CNC(=O)c2ccncc2)CCC1 | -5.08%
35 | CCN(CC)CCn1cc(NC2CCSCC2)cn1 | -1.75%
36 | CCc1nc(CN(C)CC(=O)N(C)C2CC2)cs1 | -12.2%
37 | Cc1n[nH]c(C2CN(C(=O)CCOCC(F)(F)F)CCO2)n1 (configuration not stated) | -10.1%
38 | O=C(Cn1cccn1)Nc1ccc(N2CCCCC2)cc1 | 31.5%
39 | COCCS(=O)(=O)Cc1csc(NC(C)=O)n1 | -16%
40 | Cc1nn(CC(C)C)c(C)c1CC(=O)N1CCCC(NS(C)(=O)=O)C1 (configuration not stated) | -3.7%
41 | O=C(NCC(O)COc1ccc(C(F)(F)F)cc1)Nc1nncs1 (configuration not stated) | -12.1%
42 | CCOc1ccc(NCC(=O)NCC(=O)N2CCCC2)c(C(F)(F)F)c1 | -11.7%

Row | SMILES | cytotoxicity at 70.5 h
43 | O=C(NCC1CCS(=O)(=O)C1)c1cccc(CN2CCCC2)c1 (configuration not stated) | -16%
44 | NC(=O)C1CCN(CCc2ccc(NCc3ccoc3)cc2)CC1 | -5.59%
45 | Cn1cc(CNc2ccc(CCN3CCC(C(N)=O)CC3)cc2)cn1 | 13.6%
46 | CC(NC1CCN(C(=O)C2CCCCC2)CC1)c1nccs1 (configuration not stated) | -6.15%
47 | C=C(C)CN(CC)S(=O)(=O)c1cccc(F)c1C#N | -9.8%
48 | COc1ccc(NC(C)c2ccc(C#N)cc2)cc1N1CCCC1=O (configuration not stated) | 1.58%
49 | CCN(C(C)c1cccc(O)c1)S(=O)(=O)c1cccnc1 (configuration not stated) | 5.84%
50 | COc1ccc(F)c(NCc2cnn(C3CCS(=O)(=O)C3)c2)c1 (configuration not stated) | 8.41%
51 | Cc1ncc(CN(C)C(=O)Nc2cccc(N3CCNC3=O)c2)s1 | -3.19%
52 | COc1ccc(CNC(=O)Nc2ccc(=O)n(C)c2)cc1 | -3.5%
53 | Cn1cc(NC(=O)NCc2ccsc2)ccc1=O | -2.03%
54 | CC(NC(=O)c1cccc[n+]1[O-])c1ccc2c(c1)CCC(=O)N2 (configuration not stated) | -3.74%
55 | CCOC1CCN(C(=O)c2ccc(-n3ncc(C#N)c3N)cc2)CC1 | -0.409%
56 | Cc1csc(C2CCCCN2C(=O)COCc2nc(C)no2)n1 (configuration not stated) | -4.26%
57 | CCN(CC)C(=O)c1cc(Br)cc(S(=O)(=O)N2CCOCC2)c1F | -2.06%
58 | Cc1ccc(CN(C(=O)C(C)NC(N)=O)C2CC2)cc1C (configuration not stated) | 25.3%
59 | CC(C)NC(=O)c1cc(Br)cc(S(=O)(=O)N2CCOCC2)c1F | -0.805%
60 | CCCC1SCCN1C(=O)c1ccc(-n2ncc(C#N)c2N)cc1 (configuration not stated) | -3.53%
61 | CC(=O)NC(C)C(=O)N(Cc1ccc(C)c(C)c1)C1CC1 (configuration not stated) | 0.332%
62 | Cn1cc(NC(=O)c2cccc(C(F)(F)F)c2)c(=O)n(C)c1=O | -2.92%
63 | Cc1cc(C(=O)O)ccc1NS(=O)(=O)c1c(C)nn(C(C)C)c1C | -5.01%

Row | SMILES | cytotoxicity at 70.5 h
64 | Cc1ccc(CNc2ccn(CCc3ccncc3)n2)s1 | 2.73%
65 | Cc1noc(COCC(=O)N2CCCCC2c2nccs2)n1 (configuration not stated) | -8.06%
66 | Cn1cc(S(=O)(=O)N2CCCC2Cn2ccnc2)cc1C(N)=O (configuration not stated) | -5.85%
67 | Cc1nc(C)c(CCNC(Cc2ccncc2)C(F)(F)F)s1 (configuration not stated) | 2.53%
68 | Cc1noc(COCC(=O)N2CCCC(c3nccs3)C2)n1 (configuration not stated) | -6.88%
69 | Cc1cc(N2CCOCC2)ccc1NC(C)c1nc(C(C)(C)C)no1 (configuration not stated) | -6.63%
70 | CC(C)C(NC(=O)Nc1ccc(F)cc1)C(=O)N(C)C (configuration not stated) | 3.02%
71 | Cc1ccc(C)c(OC2CCN(C(=O)NCC(=O)N3CCCC3)CC2)c1 | -5.3%
72 | CCN1CCN(c2ccc(NC(C)c3nc(C(C)C)no3)c(C)c2)CC1 (configuration not stated) | -12.5%
73 | CC(C)(C)n1nc(C(=O)NC2CCN(CC(N)=O)CC2)cc1C1CC1 | -11.7%
74 | Cc1cc(NC(=O)C(C)Nc2cccc(COCc3ccco3)c2)on1 (configuration not stated) | -20.2%
75 | N#Cc1ccc(NCc2cccc(OCC3CCCO3)c2)nc1 (configuration not stated) | -8.7%
76 | Cc1cc(N2CCCC2c2nnc3n2CCCCC3)nc(N)n1 (configuration not stated) | 22.8%
77 | CCc1noc(CN(CCC2CCCCC2)CC(N)=O)n1 | -14.6%
78 | C=C(C)CN(CC)C(=O)c1cc(F)ccc1N1CCN(C)CC1 | -12.2%
79 | Cc1ccc(C(=O)NCC(c2cnn(C)c2)N(C)C)c(O)c1 (configuration not stated) | 25.6%
80 | Cc1c(C2CC2)n[nH]c1NC(=O)C1CCCN(C(=O)NCC(C)C)C1 (configuration not stated) | -4.52%
81 | CCc1cc(CNC(=O)C2CCCN(C(=O)NCC(C)C)C2)[nH]n1 (configuration not stated) | -11.9%
82 | CCOC(=O)c1cnn(C2CCN(C(=O)CC3C=CCC3)CC2)c1N (configuration not stated) | -1.64%
